Laboratory results taken from patent US12502362B2, “Inhibitors of nucleotidyltransferase superfamily enzymes as antibiotics” (priority 2017, dated 2025).
Like-named read-outs stand apart in the source and are kept apart here.

Key:
[1] = tested on: S. aureus (ATCC 29213); test: MIC80 on S. aureus; type: cell-based, Staphylococcus aureus; settings: ≥80% growth inhibition
[2] = tested on: Ps. aeruginosa (ATCC 27853); test: MIC80 on Ps. aeruginosa; type: cell-based; settings: Pseudomonas aeruginosa, ATCC27853
[3] = tested on: E. coli (ATCC 35218); test: microbe, parasite or virus in culture; type: cell-based
[4] = tested on: S. aureus ATCC strains and MRSA; type: cell-based, Staphylococcus aureus
[5] = tested on: Staphylococcus epidermidis; type: cell-based
Experimental: (§1) It was also tested whether compounds #63 and #285 can inhibit other coagulase-negative Staphylococcus (CNS) including S. epidermidis, S. hominis, etc. […].

[6] = tested on: Staphylococcus hominis; type: cell-based
Experimental: as §1

[7] = tested on: Staphylococcus saprophyticus (ATCC BAA-750); test: MIC80 on S. saprophyticus; type: cell-based; settings: S. saprophyticus ATCC BAA-750, read-out: MIC80 S. sapro
Experimental: To further characterize the compounds, the minimal inhibitory concentration (MIC80) were determined for selected compounds. MIC80 is defined as the compound concentration at which ≥80% bacterial growth is inhibited compare to untreated controls. Meanwhile, for the selected compounds, cytotoxicity assays (CC50) were performed on a HepG2-derived hepatoblastoma cell line (HEPDES19). […] For CC50 evaluation, soluble tetrazolium dye (MTS) was used to measure mitochondrial toxicity in a human hepatoblastoma cell line (18). The bacteria (E. coli, S. saprophyticus and A. baumannii) used in MIC80 measurements were the same as that in the primary screening, but for Staphylococcus, S. aureus is used primarily because it is a common pathogen in Staphylococcaeae family, while S. saprophyticus is part of the normal human flora.

O=C(O)c1cn(C2CC2)c2cc(N3CCNCC3)c(F)cc2c1=O [Compound 67, Ciprofloxacin] was tested, and the “MIC80 S. aureus” value ([1]; S. aureus ATCC 29213 (MSSA)) was under 2.6 µM, the MIC80 ([1]; Staphylococcus aureus, ATCC 29213 / MSSA, read-out: MIC80 S. aureus, S. aureus ATCC 29213 (MSSA)) was under 2.9 µM and the MIC80 [2] was under 2.9 µM. For the same compound, the “MIC80 E. coli” value ([3]; E. coli ATCC 35218) was under 2.9 µM, the MIC80 ([3]; Escherichia coli, ATCC35218, read-out: MIC80 E. coli, E. coli ATCC 35218) was under 2.9 µM and the Antibiotic susceptibility ([4]; S. aureus ATCC 25923) was “S”. For the same compound, the Antibiotic susceptibility ([4]; S. aureus ATCC 29213) was “S”, the Antibiotic susceptibility ([4]; S. aureus ATCC BAA 976) was “S” and the Antibiotic susceptibility ([4]; S. aureus ATCC BAA 977) was “S”. The Antibiotic susceptibility ([4]; S. aureus ATCC BAA 1026) was “R”, the Antibiotic susceptibility ([4]; Sa1 (MRSA)) was “R” and the Antibiotic susceptibility ([4]; Sa2 (MRSA)) was “R”. The Antibiotic susceptibility ([4]; Sa3 (MRSA)) was “R”, the Antibiotic susceptibility ([4]; Sa5 (MRSA)) was “R” and the Antibiotic susceptibility ([4]; Sa6 (MRSA)) was “R”. The Antibiotic susceptibility ([4]; Sa7 (MRSA)) was “S”, the Antibiotic susceptibility ([4]; Sa8 (MRSA)) was “R” and the Antibiotic susceptibility ([4]; Sa9 (MRSA)) was “R”. For the same compound, the Antibiotic susceptibility ([4]; Sa10 (MRSA)) was “R”, the Antibiotic susceptibility ([4]; Sa11 (MRSA)) was “R” and the Antibiotic susceptibility ([4]; Sa12 (MRSA)) was “R”. For the same compound, the Antibiotic susceptibility ([4]; Sa14 (MRSA)) was “R”, the Antibiotic susceptibility ([4]; Sa15 (MRSA)) was “R” and the Antibiotic susceptibility ([4]; Sa16 (MRSA)) was “R”. For the same compound, the Antibiotic susceptibility ([4]; Sa17 (MRSA)) was “R”, the Antibiotic susceptibility ([4]; Sa18 (MRSA)) was “R” and the Antibiotic susceptibility ([4]; Sa19 (MRSA)) was “S”. The Antibiotic susceptibility ([4]; Sa20 (MRSA)) was “R”, the Antibiotic susceptibility ([4]; Sa21 (MRSA)) was “S” and the Antibiotic susceptibility ([4]; Sa22 (MRSA)) was “S”. The Antibiotic susceptibility ([4]; Sa23 (MRSA)) was “S”, the Antibiotic susceptibility [5] was “R and S” and the Antibiotic susceptibility [6] was “R and S”. It also gave an MIC80 [7] of under 2.9 µM and an MIC80 ([7]; Staphylococcus saprophyticus, ATCCBAA750) of under 2.9 µM.
